The values below come from patent US5773447A, “Compounds for treating disorders of lipid metabolism and their preparation” (Hoechst Aktiengesellschaft, priority 1996, dated 1998).

Where a name gives a salt, the structure may show the parent alone. Bounds are passed on as bounds.

The subject of series [1] is LDL receptor mRNA. Kind of series: Stimulation of LDL receptor mRNA expression in HepG2 cells (Northern blot). The series is classed as cell-based. The conditions noted are these: Homo sapiens, 2 × 10^-6 M, 16 h incubation, 10% fetal calf serum, LDL receptor/β-actin quotient, control=100%. An excerpt: (§1) Using a surrogate system, the present inventors sought to confirm the pharmacological activity of the inventive compounds. Thus, utilizing the human hepatocytoma cell line HepG2, which is recognized on all sides as a model, it was observed that the LDL receptor mRNA levels are increased by the compounds of the formula I (Table I). Even in rat livers, within a few hours the LDL receptor mRNA levels are increased by the compounds of the formula I (Table II). The observed stimulation is in the range from 170 to 350% of the controls (control=100%). Accordingly, an effective amount of an inventive compound can include an amount sufficient to increase CDL receptor levels or reduce plasma lipid levels.
The preparation of the mRNA was carried out according to the method of Chomczynski, P. and Sacchi, N., Anal. Biochem. 162, 156-159 (1987). In organs (such as, for example, liver), the deep-frozen tissue was homogenized on dry ice beforehand in a mortar, and the mRNA was further enriched by means of Oligo dT according to standard methods (cf. Sambrook, J., Fritsch, E. F. and Maniatis, T., Molecular Cloning, second Edition, Cold Spring Harbor (1989); in this collection of methods, there are also descriptions of all further relevant molecular biology standard methods used here). […] The filters were then exposed at -70° C. on Cronex 4 films (Dupont) overnight up to 14 days in the presence of an intensifying screen, and the hybridization signals were quantified using a commercial laser densitometer by means of the film-blackening intensity. The quotient of the intensity of the LDL receptor band and of the actin band was then determined as an internal standard to correct yield variations.
Table I presents the stimulation of the LDL receptor mRNA expression in HepG2 cells by selected compounds of formula I in whole serum (final concentration of the compounds […]) after a 16 h incubation. […] The total mRNA was then prepared, and the relevant LDL receptor mRNA and β-actin mRNA levels were determined by means of the Northern blot technique. […]

Series [2] relates to LDL receptor mRNA. As to the kind of experiment: Stimulation of LDL receptor mRNA expression in rat livers after administration (Northern blot). The series is classed as in vivo. The conditions noted are these: rat liver, 6 hours after administration, untreated control=100%.
From the text: as §1
The preparation of the mRNA was carried out according to the method of Chomczynski, P. and Sacchi, N., Anal. Biochem. 162, 156-159 (1987). In organs (such as, for example, liver), the deep-frozen tissue was homogenized on dry ice beforehand in a mortar, and the mRNA was further enriched by means of Oligo dT according to standard methods (cf. Sambrook, J., Fritsch, E. F. and Maniatis, T., Molecular Cloning, second Edition, Cold Spring Harbor (1989); in this collection of methods, there are also descriptions of all further relevant molecular biology standard methods used here). Five to […] of the dissolved mRNA thus obtained were denatured according to standard methods and separated on 1% horizontal agarose gels. The mRNA was transferred to Hybond N membranes (Amersham) by means of capillary blot. The specific hybridization probe used was a partial LDL receptor cDNA clone and the internal standard a plasmid which contained a β-actin gene. Both plasmids were labeled by means of a random primer kit from Amersham up to a specific activity of 5×10^9 cpm/μg. Prehybridization, hybridization and washing of the filters were carried out by standard methods. The filters were then exposed at -70° C. on Cronex 4 films (Dupont) overnight up to 14 days in the presence of an intensifying screen, and the hybridization signals were quantified using a commercial laser densitometer by means of the film-blackening intensity. The quotient of the intensity of the LDL receptor band and of the actin band was then determined as an internal standard to correct yield variations.
Liver tissue was removed and shock-frozen in liquid nitrogen. The mRNA was then isolated as described, and the relative LDL receptor mRNA levels were determined by means of the Northern blot technique. The mRNA levels of untreated control animals were set at 100%, and the stimulation of the LDL receptor mRNA in percent of the control was calculated.

Series [3] in a line: Metabolic stability: dealkylation to compound A in in vitro incubations (HPLC). The class given is in vitro ADME. To be noted: human, liver 9000 g fraction, 37° C., R1-dealkylated metabolite, read-out: relative content of compound A. An excerpt: It is known that compounds of formula I where R^1 =alkyl are degraded in the metabolism to compounds of the formula I where R^1 =H (in the following called compound A). Accordingly, the instant inventors sought to investigate the metabolic fate of our inventive compounds. The following experiments, which can be carried out using intact human hepatocytes or liver extracts, are used to investigate the dealkylation tendency of the compounds of the formula I according to the invention in comparison to 4-amino-2-(4,4-dimethyl-2-oxoimidazolidin-1-yl)pyrimidine-5-N-(ethyl)-N-(3-trifluoromethyl-phenyl)carboxamide hydrochloride (compound of Example 2 from EP 0 557 879--in the following called compound B).
Frozen samples of pieces of human liver stored at -78° C. were thawed by introducing them into a 1.1% strength potassium chloride solution at a temperature of 4° C. […] After thawing, the pieces of liver were prepared by standard processes [A. Y. H. Lu, W. Levin; Biochem. Biophys. Res. Comm. 46, 1339-1344 (1972), P. G. Gervasi et al.; Xenobiotica 12/8, 517 (1982)]. The temperature was kept between 0° and 4° C. during the preparation. The 9000 g fractions of ten human livers were mixed in order to exclude interindividual enzyme differences.
The test substances were dissolved in DMSO at a concentration of about 10 mg/ml. Aliquot parts of this solution were added under sterile conditions to the hepatocyte cultures or the 9000 g fractions. The incubations were carried out at 37° C. in an atmosphere having 5% CO2 and >90% atmospheric humidity. […] NADPH and Mg^2+ were added to the 9000 g fractions as cofactors [P. G. Gervasi et al.; Xenobiotica 12/8, 517 (1982)]. All samples were frozen immediately after incubation and stored at below -20° C. until analysis.
For each species and each time, all incubations with hepatocytes and 9000 g fractions were carried out without addition of a test substance. The samples obtained were used as controls in the chromatographic analysis.
For the quantitative determination of compound A, i.e. the R^1 -dealkylated metabolite, in the in vitro incubation mixtures, […] of each mixture was in each case diluted with […] of bovine serum. These samples were analyzed by the following test for the determination of compound B free base and metabolite compound A free base in serum:
Fifty microliters of the prepared solution of an internal standard (10 μg of a compound of the formula I where R^1 =CH3, R^2, R^3 =H and R^4 =CF3 /ml of methanol), 0.1 ml of sodium acetate buffer (0.4M, pH 5.5) and 5 ml of ethyl ether were added to 0.1 ml of serum. The mixture was shaken for 20 min. After centrifuging, 4 ml of the organic phase were transferred, 3 ml of n-hexane were added and the mixture was extracted with 0.5 ml of 1% strength (v/v) aqueous trifluoroacetic acid. The upper organic layer was aspirated off and discarded. The aqueous residue was evaporated at 40° C. for 30 min. in order to remove residues of the organic solvent. 100 μl of the remaining aqueous phase were injected into the HPLC apparatus. HPLC analysis was carried out on a C18 RP column (TosoHaas Semi-Micro TSK gel ODS 80 TS) using a mobile phase of 800 g of water, 270 g of acetonitrile and 1 ml of trifluoroacetic acid. The flow rate was 0.2 ml/min. The quantitative determination of the analytes was carried out by measuring the peak heights with the aid of a UV detector at γ=240 nm. The calibration range was between 50 and 0.05 μg/ml corresponding to 200 to 0.2 μg/ml in the undiluted in vitro sample. The detection limit was 0.05 μg/ml corresponding to 0.2 μg/ml in the undiluted in vitro sample.

`CC1(C)CN(c2ncc(C(=O)N(CC(F)(F)F)c3cccc(C(F)(F)F)c3)c(N)n2)C(=O)N1` [Example 1, 4-Amino-2-(4,4-dimethylimidazolidin-2-on-1-yl) pyrimidine-5-N-(2,2,2-trifluoroethyl)-N-[(3-trifluoromethyl)phenyl]carboxamide hydrochloride]: the activity at 2 µM with LDL receptor mRNA [1] stood at 220%. In the series with LDL receptor mRNA [2], this compound showed a response vs control in vivo at 30 mg/kg of 220%. For the same compound, in series [3] (incubation time 0.5 h), the metabolised at 0.5 h was under 2%. In addition, the metabolised at 1 h in series [3] (incubation time 1 h) is under 2%. The metabolised at 2 h in series [3] (incubation time 2 h) turned out to be 3%. The metabolised at 3 h in series [3] (incubation time 3 h) is 4%.
